Experimental data published in US20080214680A1, “Application of arsenic as a cancer prevention agent” (priority 2003, published 2008).

Experiments:
[1] = tested on: acute prontyelocytic leukemia cells; assay: Chen et al.: acute treatment of leukemia cells with arsenic trioxide; assay type: cell-based; settings: equivalent of 0.1 μmoles per liter
Protocol: Bae cites a paper by Chen et at. (May 1, 1997) in his references, published more than a year before his patent filing, which recites the use of arsenic trioxide (As2O3) as an acute treatment on acute prontyelocytic leukemia cells. The treatment is effective over an exposure range of 0.5-2.0 μmoles per liter, but ineffective at 0.1 μmoles per liter. These values are equivalent to […] and 0.02 μg/ml, respectively. Chen requires just 9-36 percent of Bae's arsenic hexoxide dose to produce an acute effect on cells with arsenic trioxide. (Two percent of Bae's dose [0.1 μmoles per liter] is an […] cellular dose for arsenic trioxide.) For treating humans, Bae's prolonged daily exposure to arsenic hexoxide is 1818-times greater than […] effective cellular dose and 40,000-times greater than 50 ppb. Chen reports no human exposure data, but if he treated cancers in humans with an 1818-times greater daily dose of arsenic trioxide, that exposure would be 3600-14,400-times greater than this invention's 50 ppb or μg/L. Chen's ineffective dose would be 720-times greater than 50 μg/L.

[2] = tested on: acute prontyelocytic leukemia cells; settings: acute treatment of cells; cited from earlier work

Q: For arsenic trioxide, which “ineffective exposure, mass equivalent” value [1] is on record?
A: Its value is 0.02 µg/mL.

Q: And the effective exposure range [2]?
A: Its effective exposure range is 0.5-2.0 μmoles per liter.

Q: What about the ineffective exposure [2] of the same substance?
A: The ineffective exposure was 0.1 μmoles per liter.
